“Also recorded” adds a separate entry of the source.
Legend:
[1] = molecular target: T1, TSPO (3H-R-PK11195 binding in J774 macrophages) (Mus musculus, UniProt P50637); assay: IC50 determination: inhibition of [3H]PK11195 binding in live J774 macrophage-like cells; parameters: species or system murine; settings: fixed concentration of [3H]PK11195, FIG. 3
T1 construct: using a fixed number of live murine J774 macrophage-like cells; endogenous in cells; host or cells: J774 murine macrophage-like cell line (live cells)
Protocol: FIG. 3 is a graph showing the IC50 for inhibition of 3H-R-PK11195 binding in J774 macrophages by DPA713-IRDye680LT (nM).
The IC50 value determination was done by using a fixed number of live murine J774 macrophage-like cells and incubating increasing concentrations of DPA-713-IRDye against a fixed concentration of [^3H]PK11195. All reactions and washes (50 mM Tris, pH 7.4) are done using a Brandell Cell Harvester and the cells are counted in a scintillation counter with scintillent at the end. The cpm for each group is then plotted against the log of DPA-713-IRDye concentration and the data fitted to a sigmoidal curve. The 50% inhibition of [^3H]PK11195 binding is then determined and reported as the IC50 (FIG. 3).

[2] = tested on: TSPO+ MDA-MB-231 / MDA-MB-231-PSMA xenografts; assay: In vivo NIRF imaging in TSPO+ MDA-MB-231 breast cancer xenograft bearing mice; parameters: species or system NOD-SCID mice; settings: 6 nmol intraperitoneally; imaged 1-24 hours
Protocol: Cell lines and Tumor Models. Generation of MDA-MD-231-LMD-PSMA cells. LV-PSMA is a VSV-G pseudotyped lentivirus encoding PSMA which was packaged in 293T cells. LMD-PSMA cells were generated in-house by repetitive lentiviral transduction of a cell line isolated from a lung metastasis derived MDA-MB-231 xenograft in a female NOD-SCID mouse. PSMA expression was evaluated by western blot analysis with 7E11-05 (1:200 dilution). […] Six-to-eight week old female NOD SCID mice were injected subcutaneously with 5×10^6 MDA-MB-231-LMD (a lung metastasis-derived subline of parental MDA-MB-231 behind the right forearm and 5×10^6 MDA-MB-231-LMD-PSMA (the same cell line with Prostate Specific Membrane Antigen (PSMA) stably knocked in via lentiviral vector) injected behind the […] xenografts were allowed to grow until the PSMA xenograft was at least 3 mm in diameter while the −LMD xenograft had reached 6-8 mm in diameter.
Serial in vivo NIRF imaging in TSPO+MDA-MB-231 LMD±PSMA and PC-3 PIP and -flu tumor xenograft bearing mice. MDA-MB-231 LMD lines: one mouse was imaged serially at 1 hour post-tracers, 4 hours, 8 hours and 24 hours post-tracers using a Pearl Impulse Imager (LI-COR Biosciences) with dedicated 710 and 800 nm emission filters. All images were scaled to the same maximum using the manufacturer's software to facilitate direct comparison of all timepoints. […]

[3] = tested on: CD68+ macrophages in MDA-MB-231 xenografts; assay: Ex vivo fluorescence microscopy of MDA-MB-231 xenografts; type: in vivo, mice; settings: 24 hours post-injection
Protocol: FIG. 6 is a series of photomicrographs of ex vivo fluorescence microscopy of DPA-713-IRDye680LT in MDA-MB-231 xenografts at 24 hours post-injection.
Ex vivo DPA-713-IRDye680LT microscopy. The mice used in the in vivo NIRF studies (PC-3 analog xenografts and MDA-MB-231 analog xenografts) were sacrificed at the end of their studies and their tumors were collected and frozen on dry ice for cryosectioning to 20 microns on charged glass slides (VWR). The sections were then probed with both anti-TSPO Ab (Novus Biologicals NBP1-45769, 1:70) labeled directly with Lissamine sulfonyl chloride (Aldrich) according to the known method and anti-CD68 Ab (Abcam ab53444, 1:40) and lastly with Hoechst 33342 (Invitrogen, 1 ng/mL). Both antibodies were added simultaneously in a 10% FBS in PBS solution applied directly to the freshly thawed sections and allowed to sit at room temperature for 1 hour. The sections were washed twice at room temperature for 5 minutes each with PBS prior to the addition of sheep-anti-rat-FITC (Abcam ab6848-1, 1:250) in PBS at room temperature for 30 minutes. The secondary antibody solution was removed and the slides were bathed in Hoechst solution (PBS) for 1.5 minutes at room temperature before being washed twice as before with PBS. […] All images are recorded and processed using Nikon Imaging Software Elements. […]

CCN(CC)C(=O)Cc1c(-c2ccc(OCCNC(=O)CCCCc3cccc(C(=C\C=C4/N(CCCS(=O)(=O)O)c5ccc6c(S(=O)(=O)O)cc(S(=O)(=O)O)cc6c5C4(C)C)/C=C/C4=[N+](CCCS(=O)(=O)[O-])c5ccc6c(S(=O)(=O)O)cc(S(=O)(=O)O)cc6c5C4(C)C)c3)cc2)nn2c(C)cc(C)nc12 [DPA-713-IRDye680LT, 3-(2-((1E,3Z,5Z)-3-(3-(5-(2-(4-(3-(2-(diethylamino)-2-oxoethyl)-5,7-dimethylpyrazolo[1,5-a]pyrimidin-2-yl)phenoxy)ethylamino)-5-oxopentyl)phenyl)-5-(1,1-dimethyl-6,8-disulfo-3-(3-sulfopropyl)-1Hbenzo[e]indol-2(3H)-ylidene)penta-1,3-dienyl)-1,1-dimethyl-6,8-disulfo-1H-benzo[e]indolium-3-yl)propane-1-sulfonate]
IC50 [1]: ~325 nM | Probe uptake in the larger (8 mm) PSMA+ xenograft [2]: visible 1 hour following peritoneal injection and continues through 24 hours after injection | Probe uptake in the smaller (3 mm) parental xenograft [2]: no observable uptake until the fur and skin are removed at 24 hours post-injection | Cell-specific localization of probe in xenograft sections [3]: selectively retained by CD68-expressing macrophages; also recorded: sequestered within CD68+ macrophages

From patent US9498546B2, “Synthesis and application of novel imaging agents conjugated to DPA 713 analogs for imaging inflammation” (THE JOHNS HOPKINS UNIVERSITY, priority 2012, dated 2016)
